Experiments:
[1] = tested on: ERK1/2 activation in HMDM; test: ERK1/2 phosphorylation assay (Alphascreen Surefire) in HMDM; type: cell-based, human; details: for inhibition of C5a-induced ERK1/2 activation in HMDM: 30 min pre-incubation, then C5a 5 nM for 10 min; for direct ERK1/2 activation in HMDM: peptide alone
Description: FIG. 5 is a graph showing that P32 and P59 inhibit C5a-induced ERK1/2 activation in HMDM. pERK quantified by Surefire ERK1/2 kit. Data is normalised to C5a 5 nM (100%) for each donor. Data are representative of at least three independent experiments HMDM donors performed in triplicate (n=3-5). Error bars represent SEM. **** P<0.0001 by one-way ANOVA followed by Dunnett's post hoc test.
ERK1/2 phosphorylation assays were performed using the Alphascreen Surefire ERK1/2 kit (Perkin Elmer) as per manufacturers' instructions. Briefly, HMDM were seeded at 50 000 cells/well in 96-well tissue culture plates (Nunc, Waltham, Mass., USA) and serum starved overnight. Ligands were prepared in serum-free media. P32 and P59 were pre-incubated with cells for 30 min at 37° C. and 5% CO2, prior to the addition of C5a (5 nM) for 10 min at 37° C. and 5% CO2. Media was then removed and cells lysed with lysis buffer for 10 min on a shaker, 4 μL of lysate was transferred to a white 384-well proxiplate plate (Perkin Elmer) and incubated in the presence of 7 μL of reaction mix. The plate was sealed with TopSeal-A, incubated for 2 h at 37° C. and measured on an M1000Pro plate reader (Tecan, Mannedorf, Switzerland).

[2] = target: C5a2 (Homo sapiens, UniProt Q9P296); test: DiscoveRx PathHunter β-arrestin 2 recruitment, C5a2; type: cell-based; set-up: purchased DiscoveRx Corporation (Birmingham, UK); details: 100 μM, data not shown
[3] = target: T1, C5a1 (Homo sapiens, UniProt P21730); details: up to a concentration of 100 μM, reference 27; cited from earlier work
T1 sequence (P21730 1-350): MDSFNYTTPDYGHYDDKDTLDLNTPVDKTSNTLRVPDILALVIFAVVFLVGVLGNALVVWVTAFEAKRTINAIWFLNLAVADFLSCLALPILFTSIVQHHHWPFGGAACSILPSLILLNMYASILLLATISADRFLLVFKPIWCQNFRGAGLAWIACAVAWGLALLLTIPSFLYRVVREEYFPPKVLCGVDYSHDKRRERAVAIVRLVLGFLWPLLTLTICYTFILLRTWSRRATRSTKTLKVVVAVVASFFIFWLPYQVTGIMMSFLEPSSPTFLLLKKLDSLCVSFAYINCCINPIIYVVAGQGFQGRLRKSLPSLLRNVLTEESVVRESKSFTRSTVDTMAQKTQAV

[4] = tested on: LPS stimulated HMDM; test: Cytokine release from LPS stimulated HMDM (ELISA); type: cell-based, human; details: for IL-6 release from LPS stimulated HMDM / IL-10 release from LPS stimulated HMDM / TNFα release from LPS stimulated HMDM: 24 h after co-stimulation with LPS 10 ng/ml, peptides 0.1-100 μM; for IL-6 release from LPS stimulated HMDM in the presence of PMX53: C5a1 antagonist PMX53 10 μM pre-incubated 30 min
Description: FIG. 4 is a panel of graphs showing the testing P32 and P59 for effects on cytokine release from LPS stimulated HMDM. Measurement of human inflammatory cytokines IL-6 (4A, 4B), TNFα (4C, 4D) and IL-10 (4E, 4F) release from HMDM, 24 h after co-stimulation with LPS (10 ngml^−1) and C5a (0.1-100 nM), P32 or P59 (0.1-100 μM) with or without C5a1 antagonist PMX53 (10 μM) present. Cytokine release was quantified by ELISA. Data is representative of five independent HMDM donors performed in triplicate (n=5). CTRL represents non-stimulated HMDM. Data is normalised to LPS response (100%) for each donor. Error bars represent SEM. *P<0.05, ** P<0.01, *** P<0.001, **** P<0.0001 by one-way ANOVA followed by Dunnett's post hoc test or Sidak's post hoc test for comparisons+/−PMX53.
Briefly, HMDMs were seeded in 96 well tissue culture plates (Nunc) at 100 000 cells/well and allowed to adhere overnight at 37° C. and 5% CO2. The next day HMDMs were stimulated with E. coli derived LPS (10 ng ml^−1) only or LPS (10 ng ml^−1) and either C5a or C5a2 ligands at various concentrations (1-100 nM (C5a) or 0.1-100 μM (C5a2 ligands)). For testing cytokine release in the presence of C5a1 antagonist (PMX53), cells were pre-incubated with PMX53 at 10 μM for 30 min prior to addition of C5a or C5a2 ligands. Following ligand addition HMDMs were returned to 37° C. and 5% CO2 incubator and 24 h after stimulation supernatant was removed from cells and transferred to 96 well polypropylene microplate (Nunc) and stored at −20° C. till needed for assay. Quantification of cytokine release was performed using ELISA kits (BD OptEIA™) as per manufacturers' instructions (BD Biosciences, San Jose, Calif., USA).

[5] = target: T2, human C5a2 (Flp-In CHO-C5a2 membranes) (Homo sapiens, UniProt Q9P296); test: C5a2 receptor binding, scintillation proximity assay (125I-C5a displacement); details: for Ki: inhibition of 125I-C5a binding to C5a2 membranes; for inhibition of 125I-C5a binding to C5a2 membranes, library screen: single concentration of 100 μM, compared to buffer control, P<0.05; for inhibition of 125I-C5a binding to C5aR2 membranes, full concentration response: up to a maximum concentration of 500 μM
T2 construct: expressed in transfected cells
Description: Membranes were prepared from Flp-In CHO-05a2 cells by a previously described method^46. Briefly, cells were washed with PBS, pH 7.4, and harvested into buffer (50 mM Tris-HCl, pH 7.4, 5 mM MgCl2, 1 mM CaCl2) before homogenizing with a Polytron homogenizer for 3 min on setting 22. Cells were centrifuged at 150×g for 5 min at 4° C. The supernatant was recovered and centrifuged at 22 000×g for 1 h at 4° C. Membrane pellets were then resuspended in 0.4 mL of ice-cold buffer (50 mM Tris-HCl, pH 7.4, 5 mM MgCl2, 1 mM CaCl2, containing 10% glycerol) with aliquots stored at −80° C. The protein concentration of the membrane preparation was determined by Bradford method^47.
C5a2 receptor binding studies were performed using a modification of a previously described scintillation proximity assay (SPA) method^48. Briefly, C5a2 SPA studies were performed in 96-well white isoplates with clear flat bottoms (Perkin Elmer, Waltham, Mass., USA). SPA beads (200 μg/well) were added, following the addition of various concentrations of competing ligands or buffer (6 pM to 500 μM) in a total volume of 80 μL of assay buffer (50 mM Tris-HCl, pH 7.4, 0.5% BSA, 5 mM MgCl2, 1 mM CaCl2). ^125I-C5a (˜20 pM) (specific activity, 2200 Ci mmol^−1) (Perkin Elmer) was added to C5a2 membrane preparations (˜2 μg/well). The final reaction volume per well comprised 20 μL of ligand/buffer, 20 μL of SPA beads, 20 μl of membrane and the assay was initiated by the addition of 20 μL of ^125I-C5a. The plate was then sealed using TopSeal-A (Perkin Elmer) sealing film and incubated with shaking for 1 h at room temperature. Radioligand binding was then assessed for 30 s/well using a 1450 Microbeta scintillation counter (Perkin Elmer).

T2 sequence (Q9P296 whole entry): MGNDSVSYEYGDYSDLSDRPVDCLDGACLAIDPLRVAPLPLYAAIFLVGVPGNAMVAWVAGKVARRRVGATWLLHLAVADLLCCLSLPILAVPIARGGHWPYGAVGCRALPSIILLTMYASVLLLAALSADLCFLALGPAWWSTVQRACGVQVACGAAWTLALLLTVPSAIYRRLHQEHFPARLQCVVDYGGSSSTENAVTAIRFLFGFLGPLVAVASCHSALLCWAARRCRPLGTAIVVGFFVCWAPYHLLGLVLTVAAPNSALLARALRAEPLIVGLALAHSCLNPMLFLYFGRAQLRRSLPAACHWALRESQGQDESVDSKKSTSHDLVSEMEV
Sequence of C5a2 (Q9P296 whole entry): as above

Question: Which “inhibition of C5a-induced ERK1/2 activation in HMDM” value [1] does the source give for “Ac-LIRLWR-OH [Peptide P59, Ac-LIRLWR-OH]” here?
Answer: significantly inhibit

Question: And the “direct ERK1/2 activation in HMDM” value [1]?
Answer: Neither P32 or P59 could induce ERK1/2 activation alone

Question: And the “ligand induced β-arrestin 2 recruitment at C5a2 (PathHunter)” value [2]?
Answer: showed activity at C5a2

Question: What about the “activity (agonist or antagonist) at C5a1” value [3] of the same substance?
Answer: no activity

Question: And the “IL-6 release from LPS stimulated HMDM” value [4]?
Answer: only showed significant inhibition of IL-6 at 100 μM

Question: What about the “IL-10 release from LPS stimulated HMDM” value [4] of the same substance?
Answer: no effect

Question: What about the “TNFα release from LPS stimulated HMDM” value [4] of the same substance?
Answer: no effect

Question: And the “IL-6 release from LPS stimulated HMDM in the presence of PMX53” value [4]?
Answer: unaffected

Question: What about the Ki [5] of the same substance?
Answer: 48 µM

Question: And the “affinity for C5aR2 over C5aR1” value ([5]; ratio of C5aR1 and C5aR2 affinities)?
Answer: ~10 fold

Question: What about the “inhibition of 125I-C5a binding to C5a2 membranes, library screen” value [5] of the same substance?
Answer: significant inhibition

Question: And the “inhibition of 125I-C5a binding to C5aR2 membranes, full concentration response” value [5]?
Answer: dose-dependently inhibited

Question: For “Ac-RHYPYWR-OH [Peptide P32, Ac-RHYPYWR-OH]”, which “inhibition of C5a-induced ERK1/2 activation in HMDM” value [1] is on record?
Answer: significantly inhibit

Question: What about the “direct ERK1/2 activation in HMDM” value [1] of the same substance?
Answer: Neither P32 or P59 could induce ERK1/2 activation alone

Question: What about the “ligand induced β-arrestin 2 recruitment at C5a2 (PathHunter)” value [2] of the same substance?
Answer: showed activity at C5a2

Question: And the “activity (agonist or antagonist) at C5a1” value [3]?
Answer: no activity

Question: And the “IL-6 release from LPS stimulated HMDM” value [4]?
Answer: significant inhibition of IL-6 release at two (10 and 100 μM) of the four doses tested

Question: What about the “IL-10 release from LPS stimulated HMDM” value [4] of the same substance?
Answer: no effect

Question: And the “TNFα release from LPS stimulated HMDM” value [4]?
Answer: no effect

Question: What about the “IL-6 release from LPS stimulated HMDM in the presence of PMX53” value [4] of the same substance?
Answer: unaffected

Question: And the Ki [5]?
Answer: 223 µM

Question: And the “inhibition of 125I-C5a binding to C5a2 membranes, library screen” value [5]?
Answer: significant inhibition

Question: What about the “inhibition of 125I-C5a binding to C5aR2 membranes, full concentration response” value [5] of the same substance?
Answer: dose-dependently inhibited
